Tests used:
[1] = Acute toxicity in mice; conditions: in vivo, male mouse, dihydrochloride
Experimental: (§1) The acute toxicity of the N-(2-guanidinoethyl)-5-isoquinolinesulfonamide dihydrochloride was measured by giving male ddY-strain mouse and rat an intravenous administration and an oral administration.
The acute toxicity of the hydrochloric acid salt of other compounds was measured by giving male ddY-strain mice an intravenous administration.

[2] = Acute toxicity in rats; conditions: in vivo, male rat, dihydrochloride
Experimental: as §1

Cl.Cl.N=C(N)NCCNS(=O)(=O)c1cccc2cnccc12 [N-(2-guanidinoethyl)-5-isoquinolinesulfonamide dihydrochloride]
LD50 ([1]; intravenous administration): 59 mg/kg | LD50 ([1]; oral administration): 1480 mg/kg | LD50 ([2]; intravenous administration): 64 mg/kg | LD50 ([2]; oral administration): 1160 mg/kg
